In paper PMC9399058, “Preclinical evaluation of FAP-2286 for fibroblast activation protein targeted radionuclide imaging and therapy” (European Journal of Nuclear Medicine and Molecular Imaging, 2022):
Read-outs that look alike come from different tables or passages of the source. Blank lines part the entries; values can stand above or below the compound they belong to.

Columns and labels:
HEK-FAP xenografts = assay: SPECT/CT biodistribution and tumor dosimetry of 177Lu-labeled tracers in HEK-FAP tumor-bearing mice; format: in vivo, mouse; conditions: 177Lu-labeled, HEK-FAP tumors
Protocol: (§1) HEK-FAP cell line was generated using the vector pTAR to insert FAP complementary DNA by recombinase-mediated cassette exchange into the pre-tagged HEK293 cells (InSCREENeX). For in vivo HEK-FAP studies, female nude or SCID beige mice (Charles River Laboratories) were subcutaneously implanted with 5 × 10^6 HEK-FAP cells in 150 µL serum-free media:Matrigel (1:1) (Corning). For the patient-derived xenograft (PDX) efficacy study, female NMRI nu/nu mice (Janvier Labs) were subcutaneously implanted with Sarc4809 fragments (Experimental Pharmacology & Oncology Berlin-Buch). All animal experiments were carried out under licenses approved by the respective authorities and in compliance with guidelines on animal welfare.
(§2) Thirty megabecquerels (30 MBq/nmol) ^111In-FAP-2286 (n = 9) or ^111In-FAPI-04 (n = 6) was injected intravenously (IV) into HEK-FAP tumor-bearing mice and the distribution of the radiotracers was assessed using the NanoSPECT/computed tomography (CT) system (Mediso). For PET imaging, 10 MBq of ^68Ga-FAP-2286 or ^68Ga-FAPI-46 (10 MBq/nmol) was given IV into HEK-FAP tumor-bearing mice (n = 3) followed by PET/CT analysis using the nanoScan PET/CT system (Mediso). For SPECT imaging of ^177Lu-labeled FAP-2286 or ^177Lu-labeled FAPI-46, 30 MBq was administered IV (30 MBq/nmol; n = 3) and the distribution of the radiotracers was assessed using the nanoScan SPECT/CT system (Mediso).
(§3) The animal studies were conducted in different laboratories. ^111In-Imaging and efficacy studies using the HEK-FAP model and different doses of ^177Lu-FAP-2286 as well as the Sarc4809 PDX efficacy study took place at Berlin Experimental Imaging Center (BERIC, Germany). The Sarc4809 model was originally derived from a primary lesion of undifferentiated pleomorphic sarcoma. These studies were performed in either female swiss nude (Charles River Laboratories, France – ^111In-Imaging), NMRI nude (Janvier Labs, France – PDX efficacy study) or SCID beige mice (Charles River Laboratories, Germany - ^111In-Imaging). ^68Ga-Imaging and comparative studies with ^177Lu labeled FAP-2286 and FAPI-46 were performed at Minerva Imaging ApS, Denmark using female athymic nude mice (Charles River Laboratories, Germany). For all experiments animals were ordered with an age of approximately 6 weeks. Animals were allowed an acclimatization period of at least one week prior to inoculation. Animals were housed in an animal room with 12 hours light and 12 hours darkness with free access to food and water. A maximum number of 5 animals were housed in the same cage, cages were equipped with nesting material and plastic or paper houses for hiding. Each cage was labeled with study ID, group and animal numbers and test compound. For efficacy studies animals were randomized according to tumor size. Animals were checked daily for any signs of illness or abnormal behavior. Main humane endpoints were defined as tumor volumes > 1500 mm^3, tumor burden > 10% of animal weight, body weight loss >15% and tumor ulceration. When reaching one of these criteria the animal was sacrificed by cervical dislocation. All animal experiments were approved either by the Regional Office for Health and Social Affairs Berlin (LAGeSo), Germany or the National Animal Experiments Inspectorate under the Ministry of Environment and Food of Denmark.
(§4) Imaging and image analysis were performed as described. During the scan, mice were kept under isoflurane anesthesia, and body temperature was maintained under warm air. The following acquisition parameters were used for the respective imaging modality.
(§5) For quantification, VivoQuant (InviCRO) was used to draw regions of interest (ROIs) in relevant tissues, with a ROI drawn over the left ventricle of the heart to serve as blood pool surrogate. […]

[1] = Plasma stability assay, mouse plasma; format: in vitro ADME; conditions: 24 h at 37 °C
Protocol: FAP-2286 was incubated in human or mouse plasma at 37 °C for 24 h. Compound concentration was measured using HPLC–MS/MS (Agilent Technologies) and percent concentration remaining was calculated.
FAP-2286 was incubated in 50 µL of plasma with 3.8% sodium citrate as anticoagulant at a concentration of 10 µM. After 1, 2, 4, and 24 hours incubation at 37°C a suitable internal standard was added. FAP-2286 with plasma proteins were precipitated using 150 µL of a precipitation agent consisting of 77% 0.1 M zinc sulfate solution and 23% acetonitrile. Precipitation was carried out on ice for 30 minutes. […]
A nonincubated plasma sample spiked with 10 µM sample concentration was prepared in the same way and was used as the reference. […] The samples were analyzed using an Agilent 1290 UHPLC system coupled to an Agilent 6530 QTOF mass spectrometer.
For the quantitative data analysis, the Agilent Quantitative Analysis B.08.00 software (RRID:SCR_015040) was used. […] The concentration of the compound was determined by external matrix calibration using 6 calibration samples (1, 2.5, 5, 7.5, 10, and 12.5 µM). […] Carryover was determined by analyzing the blank sample directly after the highest calibration sample and comparing the determined peak areas. Recovery was calculated as the ratio between the spiked concentration of the recovery sample and the concentration calculated from the peak area of this sample.

neoplastic lesions = tested on: neoplastic lesions; set-up: method as in PMID 34168013; conditions: patients with pancreatic, breast, ovarian, or colorectal carcinomas ref 51; cited from earlier work
[2] = PET/CT biodistribution of 68Ga-labeled tracers in HEK-FAP tumor-bearing mice; conditions: mouse, in vivo, 10 MBq IV, n=3
Protocol: as §1
as §2, with “(Mediso). […]” for “(Mediso). For PET imaging, 10 MBq of ^68Ga-FAP-2286 or ^68Ga-FAPI-46 (10 MBq/nmol) was given IV into HEK-FAP tumor-bearing mice (n = 3) followed by PET/CT analysis using the nanoScan PET/CT system (Mediso).”, “(Mediso). […]” for “(Mediso).”
as §5

[3] = SPECT/CT biodistribution of 111In-labeled tracers in HEK-FAP tumor-bearing mice; format: in vivo, mouse; conditions: mouse; for tissue uptake at 1 h / tissue uptake at 3 h / tissue uptake at 6 h / tissue uptake at 24 h / tissue uptake at 48 h: in vivo
Protocol: as §1, §2, §3, §4, §5

fold higher TIAC compared to FAPI-46 (HEK-FAP xenografts): 12 fold | fold higher absorbed dose delivered to the tumors compared to FAPI-46 (HEK-FAP xenografts): 9 fold | percent retained in mouse plasma [1]: 85%
SMILES: CCCCCC(=O)N[C@H]1CSCc2cc(CSCCNC(=O)CN3CCN(CC(=O)O)CCN(CC(=O)O)CCN(CC(=O)O)CC3)cc(c2)CSC[C@@H](C(=O)O)NC(=O)[C@H](Cc2ccccc2)NC(=O)[C@H](CCC(N)=O)NC(=O)[C@H]([C@@H](C)O)NC(=O)[C@@H]2CCCN2C(=O)[C@@H]2CCCN2C1=O [FAP-2286]

tissue uptake at 0.5 h ([2]; 0.5 h after administration): 9.8 %ID/g | tissue uptake at 3 h ([2]; 3 h after injection): 10.8 %ID/g
SMILES: CCCCCC(=O)N[C@H]1CSCc2cc(CSCCNC(=O)CN3CCN(CC(=O)O)CCN(CC(=O)O)CCN(CC(=O)O)CC3)cc(c2)CSC[C@@H](C(=O)O)NC(=O)[C@H](Cc2ccccc2)NC(=O)[C@H](CCC(N)=O)NC(=O)[C@H]([C@@H](C)O)NC(=O)[C@@H]2CCCN2C(=O)[C@@H]2CCCN2C1=O [^68Ga-FAP-2286, metal not drawn]
PET/CT uptake in patients (neoplastic lesions): significant uptake in neoplastic lesions and low presence in normal tissues

tissue to tissue ratio at 1 h ([3]; female, tumor and kidney, iv, 30 MBq, total radioactivity, tumor-to-kidney, 1 h p.i., read-out: T/K ratio (mean ± SD)): 3 ± 1.3 | tissue to tissue ratio at 3 h ([3]; female, tumor and kidney, iv, 30 MBq, total radioactivity, tumor-to-kidney, 3 h p.i., read-out: T/K ratio (mean ± SD)): 4.6 ± 1.9 | tissue to tissue ratio at 6 h ([3]; female, tumor and kidney, iv, 30 MBq, total radioactivity, tumor-to-kidney, 6 h p.i., read-out: T/K ratio (mean ± SD)): 5 ± 2.8 | tissue to tissue ratio at 24 h ([3]; female, tumor and kidney, iv, 30 MBq, total radioactivity, tumor-to-kidney, 24 h p.i., read-out: T/K ratio (mean ± SD)): 5.9 ± 3.3 | tissue to tissue ratio at 48 h ([3]; female, tumor and kidney, iv, 30 MBq, total radioactivity, tumor-to-kidney, 48 h p.i., read-out: T/K ratio (mean ± SD)): 7.5 ± 4.8 | tissue uptake at 1 h ([3]; 1 h p.i., read-out: Salivary Glands %ID/g (mean ± SD)): 0.6 ± 0.4 %ID/g | tissue uptake at 3 h ([3]; 3 h p.i., read-out: Salivary Glands %ID/g (mean ± SD)): 0.2 ± 0.1 %ID/g | tissue uptake at 6 h ([3]; 6 h p.i., read-out: Salivary Glands %ID/g (mean ± SD)): 0.2 ± 0.2 %ID/g | tissue uptake at 1 h ([3]; heart, 1 h p.i., read-out: Blood Pool Surrogate %ID/g (mean ± SD)): 0.4 ± 0.1 %ID/g | tissue uptake at 3 h ([3]; heart, 3 h p.i., read-out: Blood Pool Surrogate %ID/g (mean ± SD)): 0.1 ± 0.1 %ID/g | tissue uptake at 6 h ([3]; heart, 6 h p.i., read-out: Blood Pool Surrogate %ID/g (mean ± SD)): 0.1 %ID/g | tissue uptake at 1 h ([3]; iv, 1 h p.i., 30 MBq IV, HEK-FAP mice, n=9, read-out: Tumor %ID/g (mean ± SD)): 11.1 ± 4.3 %ID/g | tissue uptake at 1 h ([3]; iv, 1 h p.i., 30 MBq IV, HEK-FAP mice, read-out: Kidney %ID/g (mean ± SD)): 3.9 ± 1 %ID/g | tissue uptake at 1 h ([3]; iv, 1 h p.i., 30 MBq IV, HEK-FAP mice, read-out: Liver %ID/g (mean ± SD)): 0.3 ± 0.1 %ID/g | tissue uptake at 3 h ([3]; iv, 3 h p.i., 30 MBq IV, HEK-FAP mice, read-out: Kidney %ID/g (mean ± SD)): 2.5 ± 0.4 %ID/g | tissue uptake at 3 h ([3]; iv, 3 h p.i., 30 MBq IV, HEK-FAP mice, read-out: Liver %ID/g (mean ± SD)): 0.2 ± 0.1 %ID/g | tissue uptake at 6 h ([3]; iv, 6 h p.i., 30 MBq IV, HEK-FAP mice, n=9, read-out: Tumor %ID/g (mean ± SD)): 11.4 ± 6.6 %ID/g | tissue uptake at 6 h ([3]; iv, 6 h p.i., 30 MBq IV, HEK-FAP mice, read-out: Kidney %ID/g (mean ± SD)): 2.2 ± 0.3 %ID/g | tissue uptake at 6 h ([3]; iv, 6 h p.i., 30 MBq IV, HEK-FAP mice, read-out: Liver %ID/g (mean ± SD)): 0.1 %ID/g | tissue uptake at 24 h ([3]; iv, 24 h p.i., 30 MBq IV, HEK-FAP mice, n=9, read-out: Tumor %ID/g (mean ± SD)): 9.7 ± 5.3 %ID/g | tissue uptake at 24 h ([3]; iv, 24 h p.i., 30 MBq IV, HEK-FAP mice, read-out: Kidney %ID/g (mean ± SD)): 1.6 ± 0.2 %ID/g | tissue uptake at 24 h ([3]; iv, 24 h p.i., 30 MBq IV, HEK-FAP mice, read-out: Liver %ID/g (mean ± SD)): 0.1 %ID/g | tissue uptake at 48 h ([3]; iv, 48 h p.i., 30 MBq IV, HEK-FAP mice, n=9, read-out: Tumor %ID/g (mean ± SD)): 9.1 ± 5 %ID/g | tissue uptake at 48 h ([3]; iv, 48 h p.i., 30 MBq IV, HEK-FAP mice, read-out: Kidney %ID/g (mean ± SD)): 1.3 ± 0.2 %ID/g | tissue uptake at 48 h ([3]; iv, 48 h p.i., 30 MBq IV, HEK-FAP mice, read-out: Liver %ID/g (mean ± SD)): 0.1 %ID/g | tissue uptake at 1 h ([3]; non-tumor bearing shoulder, 1 h p.i., read-out: Shoulder %ID/g (mean ± SD)): 1.2 ± 0.6 %ID/g | tissue uptake at 3 h ([3]; non-tumor bearing shoulder, 3 h p.i., read-out: Shoulder %ID/g (mean ± SD)): 0.4 ± 0.1 %ID/g | tissue uptake at 6 h ([3]; non-tumor bearing shoulder, 6 h p.i., read-out: Shoulder %ID/g (mean ± SD)): 0.1 ± 0.1 %ID/g | tissue uptake at 24 h ([3]; non-tumor bearing shoulder, 24 h p.i., read-out: Shoulder %ID/g (mean ± SD)): 0.1 %ID/g | tissue uptake at 48 h ([3]; non-tumor bearing shoulder, 48 h p.i., read-out: Shoulder %ID/g (mean ± SD)): 0.1 %ID/g
SMILES: CCCCCC(=O)N[C@H]1CSCc2cc(CSCCNC(=O)CN3CCN(CC(=O)O)CCN(CC(=O)O)CCN(CC(=O)O)CC3)cc(c2)CSC[C@@H](C(=O)O)NC(=O)[C@H](Cc2ccccc2)NC(=O)[C@H](CCC(N)=O)NC(=O)[C@H]([C@@H](C)O)NC(=O)[C@@H]2CCCN2C(=O)[C@@H]2CCCN2C1=O [^111In-FAP-2286, metal not drawn]
